Results from US20210113659A1, “ENGINEERED THERAPEUTIC TO ENHANCE CYTOTOXIC ACTIVITY AND PHAGOCYTOSIS IN TUMOR ASSOCIATED MACROPHAGES” (University of Massachusetts, priority 2019, published 2021).

Tested on: 4T1 cells or B16 F10 cells
Assay: Cytotoxic efficacy using MTS assay
Assay type: cell-based
Details: lower concentrations, 72 h
Description: Cytotoxic Efficacy of DNTs Using MTS Assay: 5×10^3 4T1 cells or B16 F10 cells per well were seeded in a 96 well plate and left overnight to adhere. The cells were serum starved for 6 h by incubating them in serum free basal medium. The cells were incubated with either free drugs or DNTs of equivalent free drug concentrations for 72 h. The cells were washed with PBS and the medium was replaced with phenol red free DMEM followed by incubation in a mixture of MTS and PMS (1:20) solution for 30 min. Absorbance was measured at 480 nm using a BioTek plate reader. The data was analyzed using graph pad.

## CC1(N)CCN(c2cnc(-c3cccc(Cl)c3Cl)c(N)n2)CC1.Cl.Cl [SHP099, 6-(4-Amino-4-methylpiperidin-1-yl)-3-(2,3-dichlorophenyl)pyrazin-2-amine dihydrochloride]
  effect on the viability of cancer cells: did not have a significant effect
